# Entries after “also recorded” stand apart in the source; their conditions may differ.
# Tests used:
# A375 melanoma cells = experiment: RNA-seq of A375 melanoma cells before and after treatment with fluvastatin; format: cell-based, human
# Protocol: Characterization of the transcriptome in human melanoma cells exposed to fluvastatin The effect of statins on the melanoma transcriptome was characterized using a well-established melanoma cell line. Human melanoma cell line A375 (a generous gift of Dr John Letterio, Case Western Reserve University, Cleveland, OH) were maintained in standard growth media consisting of RPMI 1640 (Thermo Fisher Scientific, Waltham, MA) b 10% fetal bovine serum p 2 mM glutamine and grown in a 5% carbon dioxide-humidified atmosphere at 37° C. Cells were tested biannually and shown to be negative for mycoplasma contamination using the Mycoplasma Detection kit (MycoAlert, Lonza, Basel, Switzerland). For gene expression studies, A375 cells were seeded at 2.5E6 per […] and allowed to adhere overnight. Test samples (in triplicate) were treated with fluvastatin (purchased from Millipore Sigma, St. […] Untreated control cells grown side by side were used as the reference control for differential expression analysis. RNA was quantified using the Qubit Broad Range RNA kit (catalog #Q10210; Thermo Fisher Scientific) and diluted to 50 ng/ml for RNA-seq.
# Sequencing reads generated from the Illumina HiSeq platform (Illumina, San Diego, CA) were assessed for quality and trimmed for adapter sequences using TrimGalore!, version 0.4.2 (Babraham Bioinformatics, Cambridge, United Kingdom), a wrapper script for FastQC and cutadapt. Reads that passed quality control were subsequently aligned to the human reference genome (GRCh38) using STAR aligner, version 2.5.1. Sequence alignment was guided using the GENCODE annotation for hg38. The aligned reads were analyzed for differential expression using Cufflinks, version 2.2.1, an RNA-seq analysis package that reports the fragments per kilobase of exon per million mapped for each gene. A differential analysis report was generated using the cuffdiff command performed in a pairwise manner for each group. Differential genes were identified using a significance cutoff of q<0.05. The differential expression profiles were then used as input in iPathwayGuide (Advaita Bioinformatics, Ann Arbor, MI) for pathway analysis.
# A375 cells = settings: cited from earlier work
# melanoma metastasis = settings: mouse, in vivo; cited from earlier work
# [1] = system: melanocytic atypia and melanoma initiation markers; settings: in vivo; cited from earlier work
# [2] = fluvastatin 3 µM, 24 hours, vs untreated control
# [3] = fluvastatin 3 µM, 24 hours, vs untreated control, SkylineDx profile gene
compound,measurement,setting,value
CC(C)n1c(/C=C/C(O)CC(O)CC(=O)O)c(-c2ccc(F)cc2)c2ccccc21 (centres unmarked) [Fluvastatin],"expression of genes included in melanoma prognostic tests (DecisionDx-Melanoma, Merlin Assay)",A375 melanoma cells,significantly altered
same,expression of genes used in a diagnostic test that distinguishes melanoma from nevi (myPath Melanoma),A375 melanoma cells,did not alter; also recorded: did not affect
same,effect on the metastatic gene expression profile of melanoma,A375 melanoma cells; 3 μM concentration for 24 hours,effectively reverses
same,SLC16A1 fold change,"A375 melanoma cells; after fluvastatin exposure, q=0.062, not statistically significant",0.797
same,BUB1 Log2 Fold Change,A375 melanoma cells; [2],−0.7319
same,CCND3 Log2 Fold Change,A375 melanoma cells; [2],−0.7194
same,CDKN1A Log2 Fold Change,A375 melanoma cells; [2],1.3053
same,CDKN1C Log2 Fold Change,A375 melanoma cells; [2],3.2643
same,CUL1 Log2 Fold Change,A375 melanoma cells; [2],−0.3847
same,FGF2 Log2 Fold Change,A375 melanoma cells; [2],−0.5791
same,KIFC1 Log2 Fold Change,A375 melanoma cells; [2],−0.4213
same,MAGEA1 Log2 Fold Change,A375 melanoma cells; [2],−0.4357
same,MAGEA3 Log2 Fold Change,A375 melanoma cells; [2],−0.4574
same,MAGEA4 Log2 Fold Change,A375 melanoma cells; [2],−0.2919
same,MAGEA6 Log2 Fold Change,A375 melanoma cells; [2],−0.4529
same,MAGED1 Log2 Fold Change,A375 melanoma cells; [2],0.7222
same,S1PR5 Log2 Fold Change,A375 melanoma cells; [2],−1.3212
same,SOX4 Log2 Fold Change,A375 melanoma cells; [2],−0.4139
same,TGFBRAP1 Log2 Fold Change,A375 melanoma cells; [2],−0.3389
same,AQP3 Log2 Fold Change,"A375 melanoma cells; fluvastatin 3 µM, 24 hours, vs untreated control, Castle Biosciences profile gene",3.2162
same,K14 Log2 Fold Change,"A375 melanoma cells; fluvastatin 3 µM, 24 hours, vs untreated control, Castle Biosciences profile gene (keratin 14)",2.8530
same,CXCL8 Log2 Fold Change,A375 melanoma cells; [3],0.8218
same,ITGB3 Log2 Fold Change,A375 melanoma cells; [3],0.5304
same,PLAT Log2 Fold Change,A375 melanoma cells; [3],1.7389
same,differentially expressed genes identified,A375 melanoma cells; significance cutoff q<0.05,"2,615"
"CC(C)c1c(C(=O)Nc2ccccc2)c(-c2ccccc2)c(-c2ccc(F)cc2)n1CC[C@@H](O)C[C@@H](O)CC(=O)O [atorvastatin, Atorvastatin]",migration and invasion,A375 cells; Matrigel transwell assay,decreasing
same,isoprenylation of RhoC,A375 cells,decreases
same,metastasis,melanoma metastasis,decreasing
"CC[C@H](C)C(=O)O[C@H]1C[C@@H](C)C=C2C=C[C@H](C)[C@H](CC[C@@H]3C[C@@H](O)CC(=O)O3)[C@H]21 [lovastatin, Lovastatin]",melanocytic atypia or other melanoma initiation markers,[1],did not identify any significant decreases

# — patent US20240336972A1, “METHODS FOR SELECTING MELANOMA PATIENTS FOR THERAPY AND METHODS OF REDUCING OR PREVENTING MELANOMA METASTASIS” (Oregon Health & Science University, priority 2021, published 2024)
